Test results published in ChEMBL document CHEMBL1201862, “PubChem BioAssay data set” (2004).
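Each compound was tested at five concentrations against cells in 96-well plates for 48 hours. GI50: concentration for 50% inhibition of growth.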 The source made the active and inactive calls. Cut-off read from the data, not from the text of the source: active = GI50 up to about 1.1 µM and inactive = higher.

Assays:
Assay in all cases: inhibition of tumour cell growth, NCI panel, 48 h
SN12C = system: SN12C
UACC-62 = system: UACC-62
M14 = system: M14
SW-620 = system: SW-620
NCI-H226 = system: NCI-H226
EKVX = system: EKVX
MDA-N = system: MDA-N
MOLT-4 = system: MOLT-4
RPMI-8226 = system: RPMI-8226
HOP-62 = system: HOP-62
DU-145 = system: DU-145
NCI-H460 = system: NCI-H460
RXF 393 = system: RXF 393
PC-3 = system: PC-3
MCF7 = system: MCF7
SR = system: SR
786-0 = system: 786-0
COLO 205 = system: COLO 205
OVCAR-8 = system: OVCAR-8
SF-295 = system: SF-295
HCC 2998 = system: HCC 2998
MDA-MB-435 = system: MDA-MB-435
SF-268 = system: SF-268
SK-MEL-5 = system: SK-MEL-5
SNB-75 = system: SNB-75
HOP-92 = system: HOP-92
SK-OV-3 = system: SK-OV-3
UO-31 = system: UO-31
A498 = system: A498
CAKI-1 = system: CAKI-1
OVCAR-5 = system: OVCAR-5
KM12 = system: KM12
CCRF-CEM = system: CCRF-CEM
SF-539 = system: SF-539
HL-60 = system: HL-60
OVCAR-3 = system: OVCAR-3
SNB-19 = system: SNB-19
ACHN = system: ACHN
K562 = system: K562
NCI-H23 = system: NCI-H23
TK-10 = system: TK-10
MDA-MB-231 = system: MDA-MB-231
LOX IMVI = system: LOX IMVI
Hs-578T = system: Hs-578T
NCI-H522 = system: NCI-H522
HCT-116 = system: HCT-116
U-251 = system: U-251
NCI/ADR-RES = system: NCI/ADR-RES
BT-549 = system: BT-549
HCT-15 = system: HCT-15
T47D = system: T47D
OVCAR-4 = system: OVCAR-4
IGROV-1 = system: IGROV-1
UACC-257 = system: UACC-257
SK-MEL-2 = system: SK-MEL-2
A549 = system: A549
SK-MEL-28 = system: SK-MEL-28
Malme-3M = system: Malme-3M
HT-29 = system: HT-29

Measured: GI50

S=C1NC2=C(COC/C2=C\c2ccccc2Cl)C(c2ccccc2Cl)N1 (stereo unspecified)
16.8 µM: HCT-15
inactive: SN12C 33 µM | UACC-62 65.3 µM | M14 25.8 µM | SW-620 25.5 µM | NCI-H226 27.4 µM | EKVX 33.2 µM | MDA-N 32.7 µM | MOLT-4 7.5 µM | RPMI-8226 5.26 µM | HOP-62 61.4 µM | DU-145 70.8 µM | NCI-H460 18.8 µM | RXF 393 33.3 µM | PC-3 14.3 µM | MCF7 16.4 µM | SR 2.84 µM | 786-0 36 µM | COLO 205 18.5 µM | OVCAR-8 29.8 µM | SF-295 35.2 µM | HCC 2998 6.98 µM | MDA-MB-435 25.7 µM | SF-268 51.4 µM | SK-MEL-5 15.6 µM | SNB-75 49.5 µM | HOP-92 36.4 µM | SK-OV-3 > 100 µM | UO-31 19.5 µM | A498 80 µM | CAKI-1 73.8 µM | OVCAR-5 > 100 µM | KM12 11 µM | CCRF-CEM 8.75 µM | SF-539 34.9 µM | HL-60 11.4 µM | OVCAR-3 32.1 µM | SNB-19 50.5 µM | ACHN 34.4 µM | K562 14.9 µM | NCI-H23 34.9 µM | TK-10 55.8 µM | MDA-MB-231 > 100 µM | LOX IMVI 21.2 µM | Hs-578T > 100 µM | NCI-H522 29.6 µM | HCT-116 17.5 µM | U-251 25.1 µM | NCI/ADR-RES 21.2 µM | BT-549 48.8 µM | T47D 41.5 µM | OVCAR-4 31.3 µM | IGROV-1 39.1 µM | UACC-257 56 µM | SK-MEL-2 21.2 µM

Fc1c(F)c(F)c(CSc2nc3ccccc3[nH]2)c(F)c1F
> 100 µM: HCT-15
inactive: SN12C > 100 µM | UACC-62 > 100 µM | M14 > 100 µM | A549 > 100 µM | SW-620 > 100 µM | NCI-H226 > 100 µM | EKVX > 100 µM | MDA-N > 100 µM | MOLT-4 > 100 µM | SK-MEL-28 > 100 µM | RPMI-8226 > 100 µM | HOP-62 > 100 µM | DU-145 > 100 µM | NCI-H460 > 100 µM | RXF 393 > 100 µM | PC-3 > 100 µM | MCF7 > 100 µM | SR 59 µM | COLO 205 > 100 µM | OVCAR-8 > 100 µM | SF-295 > 100 µM | HCC 2998 > 100 µM | MDA-MB-435 > 100 µM | SF-268 > 100 µM | SK-MEL-5 > 100 µM | SNB-75 > 100 µM | HOP-92 47 µM | SK-OV-3 > 100 µM | UO-31 > 100 µM | A498 > 100 µM | CAKI-1 > 100 µM | OVCAR-5 > 100 µM | Malme-3M > 100 µM | KM12 > 100 µM | CCRF-CEM > 100 µM | SF-539 > 100 µM | HL-60 > 100 µM | OVCAR-3 > 100 µM | SNB-19 > 100 µM | ACHN > 100 µM | K562 > 100 µM | NCI-H23 > 100 µM | TK-10 > 100 µM | MDA-MB-231 > 100 µM | LOX IMVI > 100 µM | Hs-578T > 100 µM | NCI-H522 > 100 µM | HCT-116 > 100 µM | U-251 > 100 µM | NCI/ADR-RES > 100 µM | BT-549 > 100 µM | T47D > 100 µM | OVCAR-4 > 100 µM | IGROV-1 > 100 µM | HT-29 > 100 µM | UACC-257 > 100 µM | SK-MEL-2 > 100 µM

Clc1nc(-c2ccccc2)nc(Cl)c1Cl
7.38 µM: HCT-15
inactive: SN12C 16.8 µM | UACC-62 13.7 µM | M14 7.14 µM | A549 15.4 µM | SW-620 4.98 µM | NCI-H226 12.1 µM | EKVX 16.2 µM | MDA-N 13 µM | MOLT-4 3.1 µM | SK-MEL-28 16.8 µM | RPMI-8226 4.29 µM | HOP-62 18 µM | DU-145 15.8 µM | NCI-H460 18.7 µM | RXF 393 7.85 µM | PC-3 11.8 µM | MCF7 8.15 µM | SR 2.69 µM | 786-0 8.05 µM | COLO 205 10.3 µM | OVCAR-8 14.6 µM | SF-295 17.3 µM | HCC 2998 7.71 µM | MDA-MB-435 12.9 µM | SF-268 11.6 µM | SK-MEL-5 13.4 µM | SNB-75 15.7 µM | HOP-92 13.9 µM | SK-OV-3 14 µM | UO-31 40.8 µM | A498 17.6 µM | CAKI-1 3.09 µM | OVCAR-5 15.8 µM | Malme-3M 5.31 µM | KM12 11.6 µM | CCRF-CEM 2.54 µM | SF-539 18.4 µM | HL-60 13.2 µM | OVCAR-3 8.38 µM | SNB-19 17.1 µM | ACHN 4.94 µM | K562 3.76 µM | NCI-H23 14.7 µM | TK-10 26.7 µM | MDA-MB-231 13.7 µM | LOX IMVI 2.26 µM | Hs-578T 15 µM | NCI-H522 3.21 µM | HCT-116 5.6 µM | U-251 8.28 µM | NCI/ADR-RES 22.5 µM | BT-549 20.6 µM | T47D 10 µM | OVCAR-4 16 µM | IGROV-1 8.69 µM | HT-29 9.89 µM | UACC-257 14.6 µM
